What was measured:
AR-VP16 = molecular target: T1, AR-VP16 (Homo sapiens, UniProt P10275); experiment: AR-VP16 DNA binding assay, HepG2; type: cell-based; details: HepG2, antagonist mode, 90 pM R1881, 48 hours; read-out: IC50 VP16 WT
T1 sequence (P10275 560-920 limits assumed): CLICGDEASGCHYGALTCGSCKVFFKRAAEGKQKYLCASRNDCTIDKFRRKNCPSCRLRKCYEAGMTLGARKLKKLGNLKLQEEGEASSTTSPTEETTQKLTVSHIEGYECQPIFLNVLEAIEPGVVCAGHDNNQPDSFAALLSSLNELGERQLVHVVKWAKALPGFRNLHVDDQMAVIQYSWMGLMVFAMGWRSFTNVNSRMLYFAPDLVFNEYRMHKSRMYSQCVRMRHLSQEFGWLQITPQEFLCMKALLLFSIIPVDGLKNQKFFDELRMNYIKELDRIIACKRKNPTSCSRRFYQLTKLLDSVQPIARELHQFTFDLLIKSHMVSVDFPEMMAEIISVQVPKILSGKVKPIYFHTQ
Experimental: (§1) HepG2 cells were maintained in EMEM supplemented with 10% FBS. One day before transfection, the media was changed to EMEM with 10% CSS. […] Cells were then trypsinized, counted and resuspended at 500,000 cells/mL. For agonist mode, the compounds were serially diluted and 50 μL of the compound was added per well. 50 μL of the cells were added to each well and incubated for 48 hours. For antagonist mode, a final concentration of 90 pM (VP16 AR) or 1 nM (VP16 F876L) R1881 was added to the plate and incubated for 48 hours. The plates were then assayed using SteadyGlo and read on the Envision. Percent Stimulation and Inhibition were determined and analyzed using GraphPad Prism.

F876L-VP16 = molecular target: T2, F876L-VP16 (Homo sapiens, UniProt P10275, F877L); experiment: AR-VP16 DNA binding assay, HepG2; type: cell-based; details: HepG2, antagonist mode, 1 nM R1881, 48 hours
T2 construct: VP16 (fusion partner); expressed in transfected cells; host or cells: HepG2
T2 sequence (P10275 1-920 F877L): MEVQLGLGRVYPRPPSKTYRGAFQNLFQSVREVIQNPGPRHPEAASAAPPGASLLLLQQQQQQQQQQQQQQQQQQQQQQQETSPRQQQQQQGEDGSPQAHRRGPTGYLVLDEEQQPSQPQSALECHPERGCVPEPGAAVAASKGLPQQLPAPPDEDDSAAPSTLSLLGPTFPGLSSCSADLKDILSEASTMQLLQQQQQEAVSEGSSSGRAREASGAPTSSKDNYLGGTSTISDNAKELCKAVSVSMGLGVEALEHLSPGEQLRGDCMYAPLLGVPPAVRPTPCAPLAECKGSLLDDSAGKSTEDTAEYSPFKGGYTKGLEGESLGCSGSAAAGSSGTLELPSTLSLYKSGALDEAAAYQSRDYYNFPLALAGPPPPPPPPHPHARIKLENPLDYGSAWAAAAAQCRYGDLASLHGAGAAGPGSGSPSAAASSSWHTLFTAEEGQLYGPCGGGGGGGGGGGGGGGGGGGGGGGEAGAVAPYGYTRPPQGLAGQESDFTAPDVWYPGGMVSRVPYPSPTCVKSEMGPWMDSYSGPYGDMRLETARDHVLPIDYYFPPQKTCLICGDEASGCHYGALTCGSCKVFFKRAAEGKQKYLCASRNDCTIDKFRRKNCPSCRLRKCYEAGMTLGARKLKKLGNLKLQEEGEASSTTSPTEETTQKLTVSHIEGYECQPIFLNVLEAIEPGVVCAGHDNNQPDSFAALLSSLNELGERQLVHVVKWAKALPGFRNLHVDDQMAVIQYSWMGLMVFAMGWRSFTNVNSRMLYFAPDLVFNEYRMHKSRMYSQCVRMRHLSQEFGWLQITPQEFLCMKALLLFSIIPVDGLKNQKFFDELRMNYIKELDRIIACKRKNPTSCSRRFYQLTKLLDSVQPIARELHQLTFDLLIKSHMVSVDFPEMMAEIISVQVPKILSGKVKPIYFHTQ
Experimental: as §1

LNCaP SRα F876L tumors = experiment: Castrate resistant prostate cancer xenograft study; type: in vivo, mouse; details: castrate SHO mice
Experimental: Castrate six to seven week old male SCID Hairless Outbred mice (SHO, Charles Rivers Laboratories) were used as the host strain for xenograft studies. LNCaP SRα F876L tumors were established in host mice and the anti-tumor activity of compounds defined herein was determined. Dosing was initiated when tumors reached 100 to 200 mm^3 and animals were randomized to each of test groups (vehicle (HP-β-CD), 10 mg/kg, 30 mg/kg or 50 mg/kg compound). Compound was dosed orally, QD, for 28 days and tumor size was measured twice weekly along with body weight measurement. At the end of study, the TGI was calculated using initial tumor volume and final tumor volume measurements. TGI: 100−(Treated/Control*100). At the termination of study tumors were collected and stored for further analyses.

SMILES	IC50 (AR-VP16) [nM]	IC50 (F876L-VP16) [nM]	TGI (%) (LNCaP SRα F876L tumors; 30 mg/kg orally QD 28 days)	TGI (%) (LNCaP SRα F876L tumors; 10 mg/kg orally QD 28 days)
N#Cc1ncc(N2C(=O)C3(CCC3)N(c3ccc(OC4CCNCC4)cc3)C2=S)cc1C(F)(F)F [Cpd 35, 5-[5-oxo-8-[4-(4-piperidyloxy)phenyl]-7-thioxo-6,8-diazaspiro[3.4]octan-6-yl]-3-(trifluoromethyl)pyridine-2-carbonitrile]	3390	2740	53	
N#Cc1ncc(N2C(=O)C3(CCC3)N(c3ccc(C(=O)NCCCO)c(F)c3)C2=S)cc1C(F)(F)F [Cpd 40, 4-[6-[6-cyano-5-(trifluoromethyl)-3-pyridyl]-5-oxo-7-thioxo-6,8-diazaspiro[3.4]octan-8-yl]-2-fluoro-N-(3-hydroxypropyl)benzamide]	24	994		
CN1CCC(Oc2ccc(N3C(=S)N(c4cnc(C#N)c(C(F)(F)F)c4)C(=O)C34CCC4)cc2)CC1 [Cpd 85, 5-[8-[4-[(1-methyl-4-piperidyl)oxy]phenyl]-5-oxo-7-thioxo-6,8-diazaspiro[3.4]octan-6-yl]-3-(trifluoromethyl)pyridine-2-carbonitrile]			100.8	80.2

Reference: US20180008587A1, “THIOHYDANTOIN ANDROGEN RECEPTOR ANTAGONISTS FOR THE TREATMENT OF CANCER” (Jaressen Pharmaceutica NV, priority 2016, published 2018)
